| melting point [°C] | SMILES |
| --- | --- |
| 110 to 112 | O=C(c1ccc(Cl)cc1)c1cncnc1 |
| 137 to 138 | Cc1ccc(-c2cccc3ccccc23)n1CC[C@H]1C[C@H](O)CC(=O)O1 (relative stereo) |
| 117 to 119 | O=C(Nc1ccc(Oc2ccnc(NCC3CC3)n2)c2ccccc12)c1cc(F)cc(N2CCCCC2)c1 |
| 89 to 98 | COc1cc(CC(=O)O)ccc1OCCNC(=O)C1Cc2ccccc2N1S(=O)(=O)c1ccc(-c2cccc(C(F)(F)F)c2)cc1 (stereo unspecified) |
| 241 to 243 | Cc1nc(NC(=O)C2CC2)sc1C(=O)NCc1ccccc1 |
| 161 to 163 | CC(C)c1cccc(C(C)C)c1NC(=O)CN1CCN(CCSc2nc3ccccc3o2)CC1 |
| 302 to 304 | NS(=O)(=O)c1ccc(-c2[nH]c3ccc(F)cc3c2-c2ccccc2)cc1 |
| 121 | O=C(c1ccccc1)c1cccc(-c2cccc(Cn3cncn3)c2)c1 |
| 138 to 140 | CSc1c(O[C@H]2CC[C@H](N)CC2)ccc2[nH]ncc12 |
| 186 | NCCOc1ccc(C=CC(=O)N2CCc3c([nH]c4ccccc34)C2c2ccc3c(c2)CCO3)cc1 (stereo unspecified) |
| 162 to 180 | NNc1c(F)cc(Cl)c2nc(Cl)sc12 |
| 84 to 89 | O=Cc1cc([N+](=O)[O-])cc(Cl)c1S |
| 101 to 102 | [N-]=[N+]=NC[C@H]1CN(c2ccc(N3C[C@@H]4C[C@H]3CO4)c(F)c2)C(=O)O1 |
| 185 to 190 | Cn1c(C(F)(F)F)cc(=O)n(-c2ccc(O)cc2F)c1=O |
| 211 to 213 | CNC(=O)Nc1ccc(S(N)(=O)=O)cc1 |
| 188 | CNC(=S)NS(=O)(=O)c1cc(CCNC(=O)/C=C/c2ccccn2)ccc1OC |
| 132 to 134 | O=[N+]([O-])c1ccc(N=Nc2cc(OCCO)c(N(CCCO)CCCO)cc2OCCO)cc1 |
| 217 to 220 | CCc1nnc2c(NC3CCCCC3)nc3ccccc3n12 |
| 118 to 120 | Cc1onc2c1N(CCCOc1ccccc1)C(=O)COC2(C)c1ccccc1 (stereo unspecified) |
| 240 to 241 | CC(=O)N1CCc2c([nH]c3ccccc23)C1 |
| 107 to 110 | Cc1ccc2c(c1)c(C1=C(Br)C(=O)N(C)C1=O)cn2C |
| 198 to 200 | COc1ccc(C(=O)NC(Cc2ccccc2)C(=O)NC(Cc2ccc(O)cc2)C(=O)O)cc1 (stereo unspecified) |
| 88 to 89 | O=C(OSc1ccccn1)c1ccc(Cc2ccc(F)cc2)o1 |

| melting point [°C] | SMILES |
| --- | --- |
| 148 to 150 | c1ccc(N(CCCNC2=NC3CCC2CC3)c2ccccc2)cc1 |
| 119 to 122 | CCOC(=O)C1CCCc2[nH]c3c(C)ccc(OC)c3c21 (stereo unspecified) |
| 105 to 108 | COC(=O)Cn1c(CCc2ccccc2)ccc(NC(=O)CCc2ccccc2)c1=O |
| 227 | Cc1cc(-c2cc(C(F)(F)F)n3ncc(-c4ccncc4)c3n2)ccc1C(F)(F)F |
| 274 to 275 | CS(=O)(=O)c1ccc(-c2coc3ccc(-c4nnc(N)o4)cc23)cc1 |
| 141 to 143 | CCCC1=C(C(=O)OCC)C(c2ccccc2Cl)c2cn(C(=O)OC)nc2N1 (stereo unspecified) |
| 65 | COC(=O)c1cccc(OCc2cc(Br)cs2)c1C(=O)OC |
| 184 to 190 | Cc1ccc(Nc2nc(-c3ccccn3)cs2)nc1 |
| 86 | CN(C)C(=O)Sc1ccccc1C(=O)c1cccc(C#N)c1 |
| 202 to 203 | CCOC(=O)c1ccc(NC(=O)/C=C/c2cnn(C)c2-c2ccc(F)cc2)cc1 |
| > 200 | CC(C)CC(CS)C(=O)Nc1cccc(C(=O)O)c1 (stereo unspecified) |
| 199 | CCOC(=O)c1ccc(CN2CCN(C3=NC4(C=CC(=O)C=C4)C(c4ccccc4)=C3)CC2)cc1 |
| 102 to 103 | CCCCC(=N)NC(=O)Nc1ccc(N)cc1 |
| 270 to 273 | CC(C)(C)CNc1nc(Nc2cccc(NS(C)(=O)=O)c2)nc2[nH]cnc12 |
| 130 to 132 | O=C(CN(C(=O)c1cccc(C(F)(F)F)c1)c1ccccc1)Nc1ccc(Cl)c(Cl)c1 |
| 85.5 to 86.5 | CCOC(=O)c1c(-c2ccc(F)cc2)c2n(c1C(C)C)CCCC2 |
| 111 | COc1ccc(N2CCN(c3ccc(N)cc3)CC2)cn1 |
| 144 to 145 | C=CC(c1ccccc1)c1c(C)c(NC=O)c(C)c(C)c1O (stereo unspecified) |
| 132 to 133 | C=CCCCSC1NN=C(c2ccncc2)N1c1ccccc1 (stereo unspecified) |
| 148 to 150 | CON(c1ccc([N+](=O)[O-])cc1C#N)S(=O)(=O)c1ccc(C)cc1 |
| 191 to 192 | Cc1ccc(NC(=O)N2CC(Oc3cccc(C(F)(F)F)c3)C2)cc1 |
| 215 to 216 | CCCc1nc2cnc3cc(Br)ccc3c2n1CC1CCN(C(=O)OC(C)(C)C)CC1 |
| 162 to 163 | Cc1ccc(S(=O)(=O)NC(=O)C2C(=O)CC(C(C)(C)C)CC2=O)cc1 (stereo unspecified) |

| melting point [°C] | SMILES |
| --- | --- |
| 90 to 93 | C=C(C(=O)c1ccc(Cl)cc1)c1ccc(Cl)cc1Cl |
| 250 | NC(Cc1cc2nccnc2cc1CP(=O)(O)O)C(=O)O (stereo unspecified) |
| 142 to 144 | Cc1c(C)c2c(c(C)c1O)C(=O)C(C)(C)O2 |
| 154 to 162 | COC(=O)Cn1c(C(=O)Nc2nc(-c3cc(OC)c(C)cc3OC)c(CCC3CCCCC3)s2)cc2cc(C)cc(C)c21 |
| 199 to 201 | CC(=O)Oc1ccc2c(c1)CCC1C3CCC(=O)C3(C)CC(O)C21O (stereo unspecified) |
| 196 to 198 | CCNC(=S)NS(=O)(=O)c1cnccc1NC1CCCCCCC1 |
| 120 to 123 | Cc1nc(N2CCN(Cc3cccc(C(=O)O)c3)C2=O)sc1C(=O)NCc1ccccc1 |
| 270 to 272 | COC(=O)c1cc2ccc(C(=O)O)cc2[nH]1 |
| 305 to 307 | O=c1cc(-c2ccncc2)nc2n1CC(O)CN2 (stereo unspecified) |
| 192 to 194 | COC(=O)c1cc(=O)c2ccc(OCC(O)COc3cccc(O)c3C(C)=O)cc2[nH]1 (stereo unspecified) |
| 70 | COc1ccccc1C(=O)C=Cc1ccncc1 |
| 213 to 215 | COC(=O)c1ccccc1-n1c(CCl)nc2ccc(F)cc2c1=O |
| 172 to 173 | CN(C)C(=O)c1cc2ccc3c(c2cc1Cn1cncn1)C(C)(C)C(=O)O3 |
| 208 | CCc1ccnc(C(=O)c2[nH]c3ccc(Cl)cc3c2CC(=O)O)c1F |
| 212 | CCN1CCN(C(=O)c2ccc(-c3cc(-c4c(-c5cccc(C)n5)nc5c(C)cccn45)ccn3)cc2)CC1 |
| 190 to 192 | CCc1ccccc1Sc1c(O)cc(-c2ccccc2)oc1=O |
| 92 | O=C(c1cccnc1)C(O)c1ccccc1Cl (stereo unspecified) |
| 236 to 238 | O=S(=O)(NC1CCCCC1)c1ccc(Nc2nccc(N3CCCc4c(O)cccc43)n2)cc1 |
| 178 to 179 | CCCCCCCCC(C)OC(=O)NC(C)(C=O)CCc1c[nH]c2ccccc12 (stereo unspecified) |
| 265 to 267 | N=C(NO)c1nc2cnc3ccc(Cl)cc3c2n1-c1ccccc1Cl |
| 232 to 234 | CC(C)(C)CC(=O)NCc1ccc2c(c1)C(=O)N(C1CCC(=O)NC1=O)C2=O (stereo unspecified) |
| 115 to 136 | O=C(CCCC(Cc1c[nH]c2ccccc12)(NC(=O)OC1C2CC3CC(C2)CC1C3)C(=O)NCCc1ccccc1)OCc1ccccc1 (stereo unspecified) |
| 105 to 107 | CCCCCCCCN(C[C@H]1CC[C@@H](CN(CCCCCCCC)C(=O)Nc2ccc(N(C)C)cc2)CC1)C(=O)Nc1ccc(N(C)C)cc1 |

| melting point [°C] | SMILES |
| --- | --- |
| 136 to 140 | Cn1cc(C(=O)Nc2ccccc2-c2ccc(Cl)cc2Cl)c(C(F)(F)F)n1 |
| 81 to 82 | COc1cccc(C2CCc3cc(OC)ccc3C2=O)c1 (stereo unspecified) |
| 165 to 166 | CC(C)CCCC(C)C1CCC2C3CC=C4CC(NCCCNC(=O)CCCCCNc5ccc([N+](=O)[O-])cc5[N+](=O)[O-])CCC4(C)C3CCC12C (stereo unspecified) |
| 258 to 260 | Cc1nc(CCn2cnc3c2c(=O)[nH]c(=O)n3C)no1 |
| > 300 | N#Cc1ccc(O)c(NC(=O)C(=O)O)c1 |
| 97 to 98 | CC(C)C(O)(CCc1ccc(OCc2ccccc2)cc1)CC(=O)O (stereo unspecified) |
| 244 to 250 | N#CC(C(=O)Nc1ccccc1)C(=O)c1nn(-c2ccccc2)c2c1CSc1ccc(C(=O)NCC(=O)O)cc1-2 (stereo unspecified) |
| 245 to 246 | CCCNC(=O)c1cccc(-c2cc(-c3ccccc3O)nc(NC(=O)c3cccs3)c2C#N)c1 |
| 253 to 254 | CNc1cc(NS(=O)(=O)c2ccc(N)cc2)nc(N(C)C)n1 |
| 101 to 106 | OCc1ccccc1-c1ccc(CBr)cc1 |
| 42 to 43 | COc1ccc(CCCCCCCC(=O)O)cc1 |
| 62.5 to 63 | Nc1c(Cl)cc(C(O)CNCCC#CCOCCc2ccccc2)cc1Cl (stereo unspecified) |
| 273 to 275 | Cc1cccc(SSc2cccc(C)c2C(=O)Nc2ccc(S(N)(=O)=O)cc2)c1C(=O)Nc1ccc(S(N)(=O)=O)cc1 |
| 164 to 167 | O=C(NCc1ccc(Cl)cc1)c1cn2c3c(cc(CN4CCOCC4)cc3c1=O)OC(CNCc1ccncc1)C2 (stereo unspecified) |
| 118 to 119 | CCc1nn2c(-c3cccc(OC)c3)ccnc2c1C#N |
| 98 to 100 | CCOC(=O)C=C(c1ccc(-c2ccccc2)cc1)C1(n2cncn2)CC1 |
| 204 | O=C(O)C1COc2ccc(O)cc2O1 (stereo unspecified) |
| 135 to 136 | COC(CN(C)c1nccc(Oc2ccc(NC(=O)c3cc(F)cc(N4CCCCC4)c3)c3ccccc23)n1)OC |
| 75 to 77 | CCCCNc1cc(CN(Cc2ccccc2)C(C)=O)cc(S(N)(=O)=O)c1Oc1ccccc1 |
| 233 to 235 | CCOc1cc2c(c3c1OC(C)(C)C3)C(c1cccc(C(=O)NC)c1)=NC(C)(C)C2=O |
| 59 to 60 | CCCCCCCCCCCCCCCCCCOc1ccccc1CC(=O)CO |
| 107 | Cc1cc(-n2ccnc2)c2cccc(OCc3c(Cl)ccc(S(=O)(=O)N4CCC[C@H]4C(=O)NCC4CCN(Cc5cccnc5)CC4)c3Cl)c2n1 |

| SMILES | melting point [°C] |
| --- | --- |
| CC(C)C1=NCCSC1=NOC(=O)N(C)SN1CCOCC1 | 127 to 128 |
| C1=C(c2cccc3c2ccn3Cc2ccccc2)CCN(Cc2ccccc2)C1 | 154 |
| OCc1ccc2ccc3cccc4ccc1c2c34 | 125 to 126 |
| CCCCn1cc(C(=O)C(=O)O)c2cc(-c3ccc(OC)cc3)ccc21 | 172 to 173 |
| CNC(=O)Oc1ccc2ccccc2c1 | 119 |
